Legend:
[1] = tested on: human normal mammary epithelial cells (HMEC); test: Cytotoxicity test (Alamar Blue cell viability); format: cell-based; conditions: treated 2 days, different concentrations, FIG. 1
Protocol: Cells were plated (1×10^4 cells in mammary epithelial growth medium/well) in quintuplicate and octuplicate for samples and control, respectively, in 96-well microplates, and allowed to adhere overnight.

[2] = target: proteinase K (Parengyodontium album, UniProt P06873); test: Proteolysis assessment (FITC-BSA fluorescence with proteinase K); conditions: proteinase K 0.05 mg/ml, over time; FIG. 3
Protocol: Proteolysis Assessment: Protein degradation was determined by monitoring the fluorescence intensity increment in FITC-BSA when samples were subjected to proteinase K (0.05 mg/mI), using a fluorescence spectrophotometer (Hitachi, Japan, λex=490 nm and λem=530 nm). All measurements were run in triplicate.

[3] = tested on: SKBR-3 (HER2-overexpressing human breast cancer cell line); test: Cancer cell proliferation assessment (Alamar Blue); format: cell-based; conditions: SKBR-3 cells; Herceptin 0.5 mg/ml; FIG. 4
Protocol: Cancer Cell Proliferation Assessment: SKBR-3 cells (ATCC, HTB3O, USA) were plated (1×10^4 cells in McCoy's 5 A medium/well) in quintuplicate and octuplicate for samples and control, respectively, in 96-well microplates and allowed to adhere overnight. […] At the time points indicated, the culture media were replaced by the phenol red-free media containing 10% of Alamar Blue. Cell proliferation was determined from the reduction in dye absorbance at 570 and 600 nm after 4 h of incubation.

proteinase K, sequence (P06873 106-384): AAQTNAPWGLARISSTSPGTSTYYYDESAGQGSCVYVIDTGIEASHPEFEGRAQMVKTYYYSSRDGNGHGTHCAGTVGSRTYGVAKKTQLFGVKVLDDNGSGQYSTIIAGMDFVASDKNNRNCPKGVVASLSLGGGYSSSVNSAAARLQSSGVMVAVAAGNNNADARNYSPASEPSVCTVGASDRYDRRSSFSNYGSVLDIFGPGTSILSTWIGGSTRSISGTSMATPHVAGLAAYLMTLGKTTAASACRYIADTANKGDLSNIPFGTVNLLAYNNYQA

(−)-epigallocatechin gallate [EGCG]
cytotoxicity [1]: low cytotoxicity

free FITC-BSA: fluorescence-labeled protein (FITC-BSA)
fluorescence intensity of FITC-BSA (protein degradation) [2]: greatly increased with time

oligomeric (−)-epigallocatechin-3-O-gallate [OEGCG]
inhibition of cell growth [3]: inhibited
